Test results published in article PMC12406721, “Chronic integrated stress response causes dysregulated cholesterol synthesis in white matter disease” (JCI Insight, 2025).

Columns and labels:
eIF2B = biological target: T1, eIF2B (Mus musculus, UniProt Q61749+Q99LD9); assay: 2BAct dose response in N208Y cells (read-out only in supplement); type: cell-based; conditions: activator, cell line not restated, read-out not told in main text
T1 construct: gene Eif2b2; endogenous complex in MIN-6 cells or their lysate; decamer α2β2δ2(γε)2; alpha subunit strongly depleted in N208Y cells (mostly octamer β2δ2γ2ε2); with Translation initiation factor eIF2B subunit alpha; Translation initiation factor eIF2B subunit gamma; Translation initiation factor eIF2B subunit epsilon

eIF2B-α = biological target: T2, eIF2B-α (Homo sapiens, UniProt Q14232); assay: NanoDSF thermal unfolding; type: binding; conditions: stabilises; concentration not told in main text
T2 construct: gene EIF2B1; purified recombinant alpha subunit, homodimer
T2 sequence (Q14232 1-305): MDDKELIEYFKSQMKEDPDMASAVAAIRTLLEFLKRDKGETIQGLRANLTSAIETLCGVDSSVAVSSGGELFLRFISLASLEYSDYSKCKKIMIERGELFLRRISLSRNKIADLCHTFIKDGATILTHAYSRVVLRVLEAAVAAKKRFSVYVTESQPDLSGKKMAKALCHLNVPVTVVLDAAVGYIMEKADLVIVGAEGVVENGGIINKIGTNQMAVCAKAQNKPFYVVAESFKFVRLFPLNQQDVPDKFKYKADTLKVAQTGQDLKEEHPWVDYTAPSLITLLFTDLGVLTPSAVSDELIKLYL

T1 sequence (Q99LD9 whole entry): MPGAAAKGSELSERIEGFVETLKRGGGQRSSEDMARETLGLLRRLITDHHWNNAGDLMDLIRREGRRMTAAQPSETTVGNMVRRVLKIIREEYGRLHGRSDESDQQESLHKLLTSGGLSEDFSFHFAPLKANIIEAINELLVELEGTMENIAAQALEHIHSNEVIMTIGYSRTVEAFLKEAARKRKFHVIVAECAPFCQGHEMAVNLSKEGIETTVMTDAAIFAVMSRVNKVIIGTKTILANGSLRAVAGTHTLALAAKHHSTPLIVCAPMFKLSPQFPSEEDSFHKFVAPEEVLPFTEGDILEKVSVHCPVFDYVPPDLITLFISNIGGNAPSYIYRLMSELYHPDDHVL
T1 sequence (Q61749 2-524): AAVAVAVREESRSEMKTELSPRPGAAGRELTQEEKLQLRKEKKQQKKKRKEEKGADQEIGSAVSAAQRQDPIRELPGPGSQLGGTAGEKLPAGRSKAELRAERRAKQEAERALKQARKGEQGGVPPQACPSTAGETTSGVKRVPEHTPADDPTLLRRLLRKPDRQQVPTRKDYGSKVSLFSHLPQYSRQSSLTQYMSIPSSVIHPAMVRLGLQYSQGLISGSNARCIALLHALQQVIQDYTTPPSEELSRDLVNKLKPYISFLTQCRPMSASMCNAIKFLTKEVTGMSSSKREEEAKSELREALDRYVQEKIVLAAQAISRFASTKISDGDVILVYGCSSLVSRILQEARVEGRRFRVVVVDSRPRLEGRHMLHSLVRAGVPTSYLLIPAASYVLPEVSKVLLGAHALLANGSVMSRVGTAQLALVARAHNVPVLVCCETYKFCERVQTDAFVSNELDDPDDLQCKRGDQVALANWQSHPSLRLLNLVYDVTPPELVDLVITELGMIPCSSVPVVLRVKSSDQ
T1 sequence (Q99LC8 whole entry N208Y partner): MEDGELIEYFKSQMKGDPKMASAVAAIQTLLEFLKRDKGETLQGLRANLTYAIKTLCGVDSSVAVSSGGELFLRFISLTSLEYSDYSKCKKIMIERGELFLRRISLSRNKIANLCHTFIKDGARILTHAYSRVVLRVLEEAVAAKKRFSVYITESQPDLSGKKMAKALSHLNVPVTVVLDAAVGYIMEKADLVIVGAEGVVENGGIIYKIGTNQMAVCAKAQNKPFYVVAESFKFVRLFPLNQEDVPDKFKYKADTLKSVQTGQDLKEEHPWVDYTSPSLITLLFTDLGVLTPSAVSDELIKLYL
T1 sequence (Q8CHW4 whole entry partner): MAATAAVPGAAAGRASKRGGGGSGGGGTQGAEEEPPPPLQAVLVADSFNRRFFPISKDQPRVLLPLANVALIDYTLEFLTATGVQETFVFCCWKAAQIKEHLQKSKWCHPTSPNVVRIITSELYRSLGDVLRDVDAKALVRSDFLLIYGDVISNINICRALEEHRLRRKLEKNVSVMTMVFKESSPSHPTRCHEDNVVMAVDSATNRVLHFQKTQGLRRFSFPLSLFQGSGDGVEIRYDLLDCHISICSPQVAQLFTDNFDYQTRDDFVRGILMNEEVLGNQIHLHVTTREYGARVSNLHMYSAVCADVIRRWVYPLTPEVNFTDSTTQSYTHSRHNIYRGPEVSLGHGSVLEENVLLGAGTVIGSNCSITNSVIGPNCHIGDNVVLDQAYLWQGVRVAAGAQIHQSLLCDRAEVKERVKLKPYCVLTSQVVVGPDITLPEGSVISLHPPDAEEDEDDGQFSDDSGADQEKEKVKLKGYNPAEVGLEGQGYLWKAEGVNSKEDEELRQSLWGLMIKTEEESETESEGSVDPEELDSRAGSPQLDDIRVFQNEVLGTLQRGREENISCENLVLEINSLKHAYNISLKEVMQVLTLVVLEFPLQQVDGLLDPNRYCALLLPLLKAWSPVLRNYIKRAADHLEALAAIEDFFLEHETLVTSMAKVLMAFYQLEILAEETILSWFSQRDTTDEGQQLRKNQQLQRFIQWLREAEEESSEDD

Compound	EC50 (eIF2B)	Tm (eIF2B-α)
O=C(COc1ccc(Cl)c(F)c1)NC12CC(NC(=O)c3cnc(C(F)F)cn3)(C1)C2 [2BAct]	27.8 nM	–
O=P(O)(O)OC[C@H]1OC(O)(CO)[C@@H](O)[C@@H]1O (some centres unmarked) [fructose-6-phosphate]	–	addition of F6P further increased the stability of WT eIF2B-α
